Experimental data taken from US5656603A (Loyola University of Chicago, priority 1995, dated 1997).
Values joined by “and” are separate entries in the source; they are usually repeats but may differ in a detail not shown here. Equal entries are not always repeated. Where two headings read alike, the source gives them in different places.

What was measured:
[1] = system: [3H]-bradykinin degradation in the isolated perfused rat lung; experiment: [3H]-bradykinin degradation in the isolated perfused rat lung (HPLC of perfusate)
Protocol: Using the procedure described herein, under Experimental Procedures it was determined that aminopeptidase P contributed to Bk degradation in the mammalian lung. In that procedure, [^3 H]-Bk (labelled in Pro^2 and Pro^3) was perfused through the isolated lung in the presence or absence of various peptidase inhibitors. The perfusate was then analyzed for radiolabelled products by HPLC. […] Most of the radioactivity (an average of 79%) was in the form of [^3 H]-Pro-Pro [Bk(2-3)] with the remainder being [^3 H]-Bk(1-5). It was hypothesized that pulmonary vascular aminopeptidase P was cleaving the Arg'-Pro^2 bond followed by rapid removal of Pro-Pro by dipeptidylpeptidase IV (DPP IV) (12). Simultaneously, angiotensin converting enzyme (ACE) was sequentially removing Phe-Arg and Ser-Pro from the C-terminus (13). […] However, most of the radioactivity remained in the Pro-Pro peak indicating substantial cleavage of Bk at the N-terminal end.
Perfusion of the Isolated Rat Lung--Male Sprague Dawley rats, weighing 300-500 grams, were anesthetized with sodium pentobarbital (50-75 mg/kg) given by intraperitoneal injection. The trachea was cannulated and the lungs ventilated with air at 70 cycles per minute (Harvard Small Animal Ventilator) at a pressure of 70 mm H2 O. The heart and lungs were exposed via midsternal incision and 1000 units of heparin were administered intracardially. Polyethylene cannulae were secured into the pulmonary artery and the left ventricle. A modified Krebs buffer (118.5 mM NaCl, 4.7 mM KCl, 1.1 mM KH2 PO4, 1.1 mM MgSO4, 2.5 mM CaCl2, 19.6 mM NaHCO3, 5.6 mM dextrose), which was kept in a 50° C. water bath and aerated with 95% O2 -5% CO2 to pH 7.35, was perfused into the pulmonary artery at 35° C. and 2.6 ml/min (LKB Microperplex peristaltic pump). The buffer was circulated through the isolated lung in situ until the effluent was free of blood. The surgical field was maintained at 37° .C with a heat lamp throughout the procedure. Experiments were conducted by introducing [^3 H]-Bk in the presence or absence of test peptidase inhibitors into the pulmonary circulation via the pulmonary artery and then collecting perfusion effluent from the left ventricular cannula. […] The lung was then perfused with 1 μCi [^3 H]-Bk in 1 ml of the inhibitor solution (giving 16 nM Bk) followed by inhibitor solution alone. Effluent was collected in tubes (0.5 min/fraction) containing 150 μl of 2% TFA. For each lung preparation, 5-6 samples were perfused over a period of about one hour. Control perfusions of [^3 H]-Bk alone were always carried out before perfusions of samples containing ramiprilat because of the slow reversibility of inhibition of ACE by this compound. […] The effects of the latter two inhibitors were reversible.
Separation and Identification of Bradykinin Metabolites--The fractions which were collected from each perfusion sample run were counted for radioactivity, and the fraction having the highest radioactive counts was prepared for HPLC by filtration through a Centricon-10 microconcentrator (Amicon). An aliquot of the filtrate containing 25000 dpm (approx. 25 μl) was spiked with a cocktail of unlabelled Bk fragments (3 μl) and then subjected to HPLC using a Waters Radial Compression Separation System with a 5μ NOVA PAK C18 Radial Pak Cartridge. The column was developed at a flow rate of 1 ml/min with a 60 min linear gradient from 100% Solvent A (0.1% TFA in water) to 75% Solvent A: 25% Solvent B (0.08% TFA in acetonitrile) using a Spectra Physics 8700XR Solvent Delivery System. The column effluent was simultaneously monitored for absorbance at 206 nm (LKB Uvicord S) and for radioactivity (Radiomatic Flo-One HS Radioactive Flow Detector using Ultima-Flo M scintillation fluid from Packard, Meriden, Conn.). […] Radioactive peaks were identified by comparison of the retention times to those of the unlabelled standards. […]

[2] = system: blood pressure response to Bk; experiment: Blood pressure response to intravenous bradykinin in the rat; assay type: in vivo; conditions: rats; intravenously, administered over a one hour period
Protocol: While aminopeptidase P appears to be quantitatively less important than ACE, there is now evidence that aminopeptidase P is nevertheless a physiologically important regulator of the blood pressure response to Bk in the rat (15,41). […] Thus, aminopeptidase P appears to play a significant role in the pulmonary degradation of Bk.
See e.g., Table 2. […] A typical therapeutically effective dose of a compound of the present invention is from about 0.008 mg/kg to 8.0 mg/kg, when given intravenously.

[3] = system: blood pressure response to Bk; conditions: rat, cited from earlier work

C[C@H](NC(=O)[C@@H]1CCCN1C(=O)[C@@H]1CCCN1C(=O)[C@@H](O)[C@H](N)Cc1ccccc1)C(N)=O [apstatin, N-[(2S, 3R)-3-amino-2-hydroxy-4-phenylbutanoyl]-L-prolyl-L-prolyl-Lalaninamide]
percentage of radioactivity eluting from the lung as intact [3H]-Bk ([1]; apstatin 40 μM together with ramiprilat (0.5 μM), mean ± SEM, three rats): 92±4% and 92%
percentage of radioactivity eluting from the lung as intact [3H]-Bk ([1]; apstatin alone (data not shown), difficult to quantitate accurately): 1-3%
dose at which Bk potentiation has been observed [2]: 0.08 to 0.8 mg/kg
effect on blood pressure decrease caused by intravenous administration of Bk ([3]; apstatin alone): significantly potentiate the magnitude as well as the duration
effect on blood pressure decrease caused by intravenous administration of Bk ([3]; apstatin plus lisinopril versus lisinopril alone): more effective in this regard than lisinopril alone
